# From PubChem BioAssay (NCI)
#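 Cultured in 96-well plates, cells were exposed to test compound for 48 hours across five concentrations. At the GI50, growth is halved. TGI marks complete inhibition of growth.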 Where a SMILES comes first, the peptide text is derived from it. [ ]: non-standard residue; d: D form. The star is where a group is joined. X13 = OC[C@H](CC1CCCCC1)N*; Aib = CC(C)(N)C(=O)O
# What was measured:
# Assay in all cases: DTP human tumour cell line panel, 48 h
# 786-0 renal = test system: 786-0 renal
# A498 renal = test system: A498 renal
# A549 NSCLC = test system: A549 NSCLC
# ACHN renal = test system: ACHN renal
# BT-549 breast = test system: BT-549 breast
# CCRF-CEM leukemia = test system: CCRF-CEM leukemia
# COLO 205 colon = test system: COLO 205 colon
# DU-145 prostate = test system: DU-145 prostate
# EKVX NSCLC = test system: EKVX NSCLC
# HCC-2998 colon = test system: HCC-2998 colon
# HCT-116 colon = test system: HCT-116 colon
# HCT-15 colon = test system: HCT-15 colon
# HL-60(TB) leukemia = test system: HL-60(TB) leukemia
# HOP-62 NSCLC = test system: HOP-62 NSCLC
# HOP-92 NSCLC = test system: HOP-92 NSCLC
# HS 578T breast = test system: HS 578T breast
# HT29 colon = test system: HT29 colon
# IGROV1 ovarian = test system: IGROV1 ovarian
# K-562 leukemia = test system: K-562 leukemia
# KM12 colon = test system: KM12 colon
# LOX IMVI melanoma = test system: LOX IMVI melanoma
# M14 melanoma = test system: M14 melanoma
# MALME-3M melanoma = test system: MALME-3M melanoma
# MCF7 breast = test system: MCF7 breast
# MDA-MB-231 breast = test system: MDA-MB-231 breast
# MDA-MB-435 = test system: MDA-MB-435
# MOLT-4 leukemia = test system: MOLT-4 leukemia
# NCI-H226 lung = test system: NCI-H226 lung
# NCI-H23 lung = test system: NCI-H23 lung
# NCI-H460 lung = test system: NCI-H460 lung
# NCI-H522 lung = test system: NCI-H522 lung
# NCI/ADR-RES ovarian = test system: NCI/ADR-RES ovarian
# OVCAR-3 ovarian = test system: OVCAR-3 ovarian
# OVCAR-4 ovarian = test system: OVCAR-4 ovarian
# OVCAR-5 ovarian = test system: OVCAR-5 ovarian
# OVCAR-8 ovarian = test system: OVCAR-8 ovarian
# PC-3 prostate = test system: PC-3 prostate
# RPMI-8226 leukemia = test system: RPMI-8226 leukemia
# RXF 393 renal = test system: RXF 393 renal
# SF-268 CNS = test system: SF-268 CNS
# SF-295 CNS = test system: SF-295 CNS
# SF-539 CNS = test system: SF-539 CNS
# SK-MEL-2 melanoma = test system: SK-MEL-2 melanoma
# SK-MEL-28 melanoma = test system: SK-MEL-28 melanoma
# SK-MEL-5 melanoma = test system: SK-MEL-5 melanoma
# SK-OV-3 ovarian = test system: SK-OV-3 ovarian
# SN12C renal = test system: SN12C renal
# SNB-19 CNS = test system: SNB-19 CNS
# SNB-75 CNS = test system: SNB-75 CNS
# SR leukemia = test system: SR leukemia
# SW-620 colon = test system: SW-620 colon
# T-47D breast = test system: T-47D breast
# TK-10 renal = test system: TK-10 renal
# U251 CNS = test system: U251 CNS
# UACC-257 melanoma = test system: UACC-257 melanoma
# UACC-62 melanoma = test system: UACC-62 melanoma
# UO-31 renal = test system: UO-31 renal
smiles,measurement,setting,value
CC(=O)NC(C)(C)C(=O)N[C@@H](C)C(=O)NC(C)(C)C(=O)N[C@@H](C)C(=O)NC(C)(C)C(=O)N[C@@H](C)C(=O)N[C@@H](CCC(N)=O)C(=O)NC(C)(C)C(=O)N[C@H](C(=O)NC(C)(C)C(=O)NCC(=O)N[C@@H](CC(C)C)C(=O)NC(C)(C)C(=O)N1CCC[C@H]1C(=O)N[C@H](C(=O)NC(C)(C)C(=O)NC(C)(C)C(=O)N[C@@H](CCC(N)=O)C(=O)N[C@@H](CCC(N)=O)C(=O)N[C@H](CO)CC1CCCCC1)C(C)C)C(C)C (Ac-[Aib]A[Aib]A[Aib]AQ[Aib]V[Aib]GL[Aib]PV[Aib][Aib]QQ-X13),GI50,786-0 renal,> 5 µM
same,TGI,786-0 renal,> 5 µM
same,GI50,A498 renal,> 4.12 µM
same,TGI,A498 renal,> 5 µM
same,GI50,A549 NSCLC,> 5 µM
same,TGI,A549 NSCLC,> 5 µM
same,GI50,ACHN renal,> 5 µM
same,TGI,ACHN renal,> 5 µM
same,GI50,BT-549 breast,1.43 µM
same,TGI,BT-549 breast,> 5 µM
same,GI50,CCRF-CEM leukemia,> 4.8 µM
same,TGI,CCRF-CEM leukemia,> 5 µM
same,GI50,COLO 205 colon,0.178 µM
same,TGI,COLO 205 colon,1.22 µM
same,GI50,DU-145 prostate,1.33 µM
same,TGI,DU-145 prostate,> 5 µM
same,GI50,EKVX NSCLC,2.29 µM
same,TGI,EKVX NSCLC,> 5 µM
same,GI50,HCC-2998 colon,2.91 µM
same,TGI,HCC-2998 colon,> 5 µM
same,GI50,HCT-116 colon,2.04 µM
same,TGI,HCT-116 colon,> 5 µM
same,GI50,HCT-15 colon,> 5 µM
same,TGI,HCT-15 colon,> 5 µM
same,GI50,HL-60(TB) leukemia,1.3 µM
same,TGI,HL-60(TB) leukemia,> 5 µM
same,GI50,HOP-62 NSCLC,> 5 µM
same,TGI,HOP-62 NSCLC,> 5 µM
same,GI50,HOP-92 NSCLC,1.01 µM
same,TGI,HOP-92 NSCLC,3.8 µM
same,GI50,HS 578T breast,3.71 µM
same,TGI,HS 578T breast,> 5 µM
same,GI50,HT29 colon,0.286 µM
same,TGI,HT29 colon,> 5 µM
same,GI50,IGROV1 ovarian,3.06 µM
same,TGI,IGROV1 ovarian,> 5 µM
same,GI50,K-562 leukemia,2.2 µM
same,TGI,K-562 leukemia,> 5 µM
same,GI50,KM12 colon,> 4.1 µM
same,TGI,KM12 colon,> 5 µM
same,GI50,LOX IMVI melanoma,1.56 µM
same,TGI,LOX IMVI melanoma,> 5 µM
same,GI50,M14 melanoma,0.221 µM
same,TGI,M14 melanoma,> 5 µM
same,GI50,MALME-3M melanoma,0.0306 µM
same,TGI,MALME-3M melanoma,0.239 µM
same,GI50,MCF7 breast,0.399 µM
same,TGI,MCF7 breast,> 5 µM
same,GI50,MDA-MB-231 breast,2.49 µM
same,TGI,MDA-MB-231 breast,> 5 µM
same,GI50,MDA-MB-435,0.834 µM
same,TGI,MDA-MB-435,> 5 µM
same,GI50,MOLT-4 leukemia,> 5 µM
same,TGI,MOLT-4 leukemia,> 5 µM
same,GI50,NCI-H226 lung,2.06 µM
same,TGI,NCI-H226 lung,> 5 µM
same,GI50,NCI-H23 lung,1.38 µM
same,TGI,NCI-H23 lung,> 5 µM
same,GI50,NCI-H460 lung,1.51 µM
same,TGI,NCI-H460 lung,> 5 µM
same,GI50,NCI-H522 lung,1.04 µM
same,TGI,NCI-H522 lung,> 5 µM
same,GI50,NCI/ADR-RES ovarian,> 5 µM
same,TGI,NCI/ADR-RES ovarian,> 5 µM
same,GI50,OVCAR-3 ovarian,1.68 µM
same,TGI,OVCAR-3 ovarian,> 5 µM
same,GI50,OVCAR-4 ovarian,1.58 µM
same,TGI,OVCAR-4 ovarian,> 5 µM
same,GI50,OVCAR-5 ovarian,> 4.67 µM
same,TGI,OVCAR-5 ovarian,> 5 µM
same,GI50,OVCAR-8 ovarian,> 4.25 µM
same,TGI,OVCAR-8 ovarian,> 5 µM
same,GI50,PC-3 prostate,1.98 µM
same,TGI,PC-3 prostate,> 5 µM
same,GI50,RPMI-8226 leukemia,1.16 µM
same,TGI,RPMI-8226 leukemia,4 µM
same,GI50,RXF 393 renal,2.63 µM
same,TGI,RXF 393 renal,> 5 µM
same,GI50,SF-268 CNS,2.24 µM
same,TGI,SF-268 CNS,> 5 µM
same,GI50,SF-295 CNS,1.64 µM
same,TGI,SF-295 CNS,> 5 µM
same,GI50,SF-539 CNS,2.28 µM
same,TGI,SF-539 CNS,> 5 µM
same,GI50,SK-MEL-2 melanoma,1.44 µM
same,TGI,SK-MEL-2 melanoma,> 5 µM
same,GI50,SK-MEL-28 melanoma,0.199 µM
same,TGI,SK-MEL-28 melanoma,1.37 µM
same,GI50,SK-MEL-5 melanoma,1.1 µM
same,TGI,SK-MEL-5 melanoma,> 3.14 µM
same,GI50,SK-OV-3 ovarian,> 5 µM
same,TGI,SK-OV-3 ovarian,> 5 µM
same,GI50,SN12C renal,1.82 µM
same,TGI,SN12C renal,> 5 µM
same,GI50,SNB-19 CNS,1.79 µM
same,TGI,SNB-19 CNS,> 5 µM
same,GI50,SNB-75 CNS,1.07 µM
same,TGI,SNB-75 CNS,> 5 µM
same,GI50,SR leukemia,3.37 µM
same,TGI,SR leukemia,> 5 µM
same,GI50,SW-620 colon,1.65 µM
same,TGI,SW-620 colon,> 5 µM
same,GI50,T-47D breast,1.26 µM
same,TGI,T-47D breast,> 5 µM
same,GI50,TK-10 renal,3.43 µM
same,TGI,TK-10 renal,> 5 µM
same,GI50,U251 CNS,2.19 µM
same,TGI,U251 CNS,> 5 µM
same,GI50,UACC-257 melanoma,0.446 µM
same,TGI,UACC-257 melanoma,2.67 µM
same,GI50,UACC-62 melanoma,0.609 µM
same,TGI,UACC-62 melanoma,> 5 µM
same,GI50,UO-31 renal,> 3.96 µM
same,TGI,UO-31 renal,> 5 µM
